{"source": "patent EP1569663B1", "about": "“IFOSFAMIDE COMPOSITIONS FOR PARENTERAL ADMINISTRATION AND A PROCESS FOR THEIR PREPARATION” (Bharat Serums & Vaccines Ltd., priority 2002, dated 2004)", "origin": "cited, not measured here", "key": {"[1]": {"conditions": "in water"}, "mouse": {"tested_on": "mouse", "conditions": "intravenous administration"}}, "data": [{"smiles": "O=P1(NCCCl)OCCCN1CCCl", "note": "(centres unmarked) [Ifosfamide, 3-(2-chtoroethyl)-2-[(2-chloroethyl)amino]-tetrahydro-2H-1,3,2-oxazaphosphorin-2-oxide]", "values": [{"measurement": "water solubility", "setting": "[1]", "result": "about 100 mg/ml"}, {"measurement": "LD50", "setting": "mouse", "result": 338, "unit": "mg/kg body weight"}]}]}
